Assay [1] has as its target IL-17A(FLAG-Tagged): IL-17RA(His-Tagged) (Homo sapiens, UniProt Q16552, K93Q). Nature of the assay: IL-17A(FLAG-Tagged): IL-17RA(His-Tagged) Binding Disruption Eu-HTRF Assay. The following applies: IL-17A/IL-17RA binding disruption, simple average if tested more than once. The procedure, abridged: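 IC50 comes from a one-site competition fit of the HTRF 665/620 nm ratio. Compound dilutions (2-fold, 22 points) were held 1 h rt with FLAG-tagged IL-17A dimer, then His-tagged IL-17RA plus Eu-cryptate anti-FLAG and D2 anti-His antibodies were added for 2 h rt.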
A general note: In TR-FRET formats the signal depends on donor and acceptor labels being close together.

Assay [2] relates to IL-17A-induced G-CSF production in human normal keratinocyte (NHK). Nature of the assay: NHK Assay: IL-17A-induced G-CSF production in human normal keratinocytes. In kind it is cell-based. The following applies: Homo sapiens, Keratinocyte, 24 h, adult normal human keratinocytes, IL-17A 5 ng/mL, simple average if tested more than once. In short, it runs like this: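 HTRF read-out of supernatant G-CSF, quantified from a standard curve, gave IC50 values. Adult keratinocytes, 3000-4000 cells/well, received human IL-17A (5 ng/mL final) pre-mixed 1 h at rt with compound, in 5% FBS and 0.2% DMSO, 24 h at 37° C.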

UniProt Q16552, sequence (Q16552 with tags, fused parts or gaps K93Q): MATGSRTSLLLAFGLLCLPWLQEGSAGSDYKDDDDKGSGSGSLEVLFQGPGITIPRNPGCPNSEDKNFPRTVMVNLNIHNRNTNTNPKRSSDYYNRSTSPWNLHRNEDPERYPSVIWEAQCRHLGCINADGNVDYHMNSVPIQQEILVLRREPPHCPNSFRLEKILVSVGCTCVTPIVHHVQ

Usually IC50 stands for the concentration that inhibits the measured activity by half. A higher IC50 goes with weaker potency in that assay. For the molecule `O=C(CCC(F)(F)F)N[C@@H](c1cnn2cc([C@@H](NC(=O)C3CC34CCC4)C3CCC(F)(F)CC3)nc2c1)C1CC1` (stereo partly drawn) [Example 45, N—((S)-(7-((R)-Cyclopropyl(4,4,4-trifluorobutanamido)methyl)imidazo[1,2-b]pyridazin-2-yl)(4,4-difluorocyclohexyl)methyl)spiro[2.3]hexane-1-carboxamide], the IC50 amounted to 240 nM in assay [1] and 710 nM in assay [2].

Regarding `O=C(CCC(F)(F)F)N[C@@H](c1cnn2cc([C@@H](NC(=O)c3ncnn3CCC(F)F)C3CCC(F)(F)CC3)nc2c1)C1CC1` [Example 46, N—((S)-(7-((R)-Cyclopropyl(4,4,4-trifluorobutanamido)methyl)imidazo[1,2-b]pyridazin-2-yl)(4,4-difluorocyclohexyl)methyl)-1-(3,3-difluoropropyl)-1H-1,2,4-triazole-5-carboxamide], the IC50 in assay [1] worked out at 130 nM; in assay [2], 640 nM.

Regarding `O=C(CCC(F)(F)F)N[C@@H](c1cnn2cc([C@@H](NC(=O)c3ncnn3CCCF)C3CCC(F)(F)CC3)nc2c1)C1CC1` [Example 47, N—((S)-(7-((R)-Cyclopropyl(4,4,4-trifluorobutanamido)methyl)imidazo[1,2-b]pyridazin-2-yl)(4,4-difluorocyclohexyl)methyl)-1-(3-fluoropropyl)-1H-1,2,4-triazole-5-carboxamide], the IC50 in assay [1] is 180 nM; in assay [2], 640 nM.

As to `O=C(CCC(F)(F)F)N[C@@H](c1cnn2cc([C@@H](NC(=O)c3cnnn3CC3CC3)C3CCC(F)(F)CC3)nc2c1)C1CC1` [Example 48, N—((S)-(7-((R)-Cyclopropyl(4,4,4-trifluorobutanamido)methyl)imidazo[1,2-b]pyridazin-2-yl)(4,4-difluorocyclohexyl)methyl)-1-(cyclopropylmethyl)-1H-1,2,3-triazole-5-carboxamide], the IC50 in assay [1] was 63 nM; in assay [2] it was 160 nM.

Consider `O=C(CCC(F)(F)F)N[C@@H](c1cnn2cc([C@@H](NC(=O)c3cnnn3CCC(F)F)C3CCC(F)(F)CC3)nc2c1)C1CC1` [Example 49, N—((S)-(7-((R)-Cyclopropyl(4,4,4-trifluorobutanamido)methyl)imidazo[1,2-b]pyridazin-2-yl)(4,4-difluorocyclohexyl)methyl)-1-(3,3-difluoropropyl)-1H-1,2,3-triazole-5-carboxamide], for which the IC50 in assay [1] is 95 nM; in assay [2] it was 110 nM.

With `Cc1c(C(=O)N[C@H](c2cn3ncc([C@H](NC(=O)CCC(F)(F)F)C4CC4)cc3n2)C2CCC(F)(F)CC2)cnn1CC(F)F` [Example 50, N—((S)-(7-((R)-Cyclopropyl(4,4,4-trifluorobutanamido)methyl)imidazo[1,2-b]pyridazin-2-yl)(4,4-difluorocyclohexyl)methyl)-1-(2,2-difluoroethyl)-5-methyl-1H-pyrazole-4-carboxamide], the figures for the IC50 in assay [1] and in assay [2] were 350 nM and 1000 nM, respectively.

For the molecule `O=C(CCC(F)(F)F)N[C@@H](c1cnn2cc([C@@H](NC(=O)c3ncnn3CCOC(F)F)C3CCC(F)(F)CC3)nc2c1)C1CC1` [Example 55, N—((S)-(7-((R)-Cyclopropyl(4,4,4-trifluorobutanamido)methyl)imidazo[1,2-b]pyridazin-2-yl)(4,4-difluorocyclohexyl)methyl)-1-(2-(difluoromethoxy)ethyl)-1H-1,2,4-triazole-5-carboxamide], the values for the half-maximal inhibitory concentration (IC50) in assay [1] and in assay [2] were 100 nM and 210 nM, respectively.

On to `O=C(CCC(F)(F)F)N[C@@H](c1cnn2cc([C@@H](NC(=O)c3ncnn3CC(F)F)C3CCC(F)(F)CC3)nc2c1)C1CC1` [Example 56, N—((S)-(7-((R)-Cyclopropyl(4,4,4-trifluorobutanamido)methyl)imidazo[1,2-b]pyridazin-2-yl)(4,4-difluorocyclohexyl)methyl)-1-(2,2-difluoroethyl)-1H-1,2,4-triazole-5-carboxamide], for which the IC50 in assay [1] stood at 170 nM; in assay [2] it was 730 nM.

Turning to `O=C(CCC(F)(F)F)N[C@@H](c1cnn2cc([C@@H](NC(=O)c3ncnn3CCF)C3CCC(F)(F)CC3)nc2c1)C1CC1` [Example 57, N—((S)-(7-((R)-Cyclopropyl(4,4,4-trifluorobutanamido)methyl)imidazo[1,2-b]pyridazin-2-yl)(4,4-difluorocyclohexyl)methyl)-1-(2-fluoroethyl)-1H-1,2,4-triazole-5-carboxamide], the 50% inhibitory concentration (IC50) in assay [1] came to 220 nM; in assay [2], 770 nM.

On to `CCn1nncc1C(=O)N[C@H](c1cn2ncc([C@H](NC(=O)CCC(F)(F)F)C3CC3)cc2n1)C1CCC(F)(F)CC1` [Example 58, N—((S)-(7-((R)-Cyclopropyl(4,4,4-trifluorobutanamido)methyl)imidazo[1,2-b]pyridazin-2-yl)(4,4-difluorocyclohexyl)methyl)-1-ethyl-1H-1,2,3-triazole-5-carboxamide], for which the IC50 in assay [1] turned out to be 81 nM; in assay [2], 270 nM.

Take `CCn1ncc(C(=O)N[C@H](c2cn3ncc([C@H](NC(=O)CCC(F)(F)F)C4CC4)cc3n2)C2CCC(F)(F)CC2)n1` [Example 59, N—((S)-(7-((R)-Cyclopropyl(4,4,4-trifluorobutanamido)methyl)imidazo[1,2-b]pyridazin-2-yl)(4,4-difluorocyclohexyl)methyl)-2-ethyl-2H-1,2,3-triazole-4-carboxamide]: the IC50 in assay [1] worked out at 420 nM; in assay [2] it was 3600 nM.

In the case of `O=C(CCC(F)(F)F)N[C@@H](c1cnn2cc([C@@H](NC(=O)C3(F)CC3)C3CCC(F)(F)CC3)nc2c1)C1CC1` [Example 60, N—((S)-(7-((R)-Cyclopropyl(4,4,4-trifluorobutanamido)methyl)imidazo[1,2-b]pyridazin-2-yl)(4,4-difluorocyclohexyl)methyl)-1-fluorocyclopropane-1-carboxamide], the IC50 was 390 nM in assay [1] and 3500 nM in assay [2].

Consider `O=C(CCC(F)(F)F)N[C@@H](c1cnn2cc([C@@H](NC(=O)c3ncnn3CC(F)(F)F)C3CCC(F)(F)CC3)nc2c1)C1CC1` [Example 61, N—((S)-(7-((R)-Cyclopropyl(4,4,4-trifluorobutanamido)methyl)imidazo[1,2-b]pyridazin-2-yl)(4,4-difluorocyclohexyl)methyl)-1-(2,2,2-trifluoroethyl)-1H-1,2,4-triazole-5-carboxamide], for which the IC50 in assay [1] was 190 nM; in assay [2] it was 1200 nM.

Consider `CC1(C)CC1C(=O)N[C@H](c1cn2ncc([C@H](NC(=O)CCC(F)(F)F)C3CC3)cc2n1)C1CCC(F)(F)CC1` (stereo partly drawn) [Example 62, N—((S)-(7-((R)-Cyclopropyl(4,4,4-trifluorobutanamido)methyl)imidazo[1,2-b]pyridazin-2-yl)(4,4-difluorocyclohexyl)methyl)-2,2-dimethylcyclopropane-1-carboxamide], for which the figures for the IC50 in assay [1] and in assay [2] were 830 nM and about 4000 nM, respectively.

As for `O=C(CCC(F)(F)F)N[C@@H](c1cnn2cc([C@@H](NC(=O)c3cnn(CC4CC(F)(F)C4)n3)C3CCC(F)(F)CC3)nc2c1)C1CC1` [Example 63, N—((S)-(7-((R)-Cyclopropyl(4,4,4-trifluorobutanamido)methyl)imidazo[1,2-b]pyridazin-2-yl)(4,4-difluorocyclohexyl)methyl)-2-((3,3-difluorocyclobutyl)methyl)-2H-1,2,3-triazole-4-carboxamide], the figures for the IC50 in assay [1] and in assay [2] were 130 nM and 200 nM, respectively.

For `COCCn1ncc(C(=O)N[C@H](c2cn3ncc([C@H](NC(=O)CCC(F)(F)F)C4CC4)cc3n2)C2CCC(F)(F)CC2)n1` [Example 64, N—((S)-(7-((R)-Cyclopropyl(4,4,4-trifluorobutanamido)methyl)imidazo[1,2-b]pyridazin-2-yl)(4,4-difluorocyclohexyl)methyl)-2-(2-methoxyethyl)-2H-1,2,3-triazole-4-carboxamide], the IC50 in assay [1] came to 630 nM; in assay [2], 2000 nM.

On to `CC(C)n1nncc1C(=O)N[C@H](c1cn2ncc([C@H](NC(=O)CCC(F)(F)F)C3CC3)cc2n1)C1CCC(F)(F)CC1` [Example 65, N—((S)-(7-((R)-Cyclopropyl(4,4,4-trifluorobutanamido)methyl)imidazo[1,2-b]pyridazin-2-yl)(4,4-difluorocyclohexyl)methyl)-1-isopropyl-1H-1,2,3-triazole-5-carboxamide], for which the IC50 in assay [1] came to 110 nM; in assay [2], 72 nM.

As for `Cn1nnc(C(=O)N[C@H](c2cn3ncc([C@H](NC(=O)CCC(F)(F)F)C4CC4)cc3n2)C2CCC(F)(F)CC2)c1C(F)F` [Example 66, N—((S)-(7-((R)-Cyclopropyl(4,4,4-trifluorobutanamido)methyl)imidazo[1,2-b]pyridazin-2-yl)(4,4-difluorocyclohexyl)methyl)-5-(difluoromethyl)-1-methyl-1H-1,2,3-triazole-4-carboxamide], the values for the IC50 in assay [1] and in assay [2] were 230 nM and 3500 nM, respectively.

`O=C(CCC(F)(F)F)N[C@@H](c1cnn2cc([C@@H](NC(=O)c3ccnn3C(F)F)C3CCC(F)(F)CC3)nc2c1)C1CC1` [Example 67, N—((S)-(7-((R)-Cyclopropyl(4,4,4-trifluorobutanamido)methyl)imidazo[1,2-b]pyridazin-2-yl)(4,4-difluorocyclohexyl)methyl)-1-(difluoromethyl)-1H-pyrazole-5-carboxamide]: the IC50 was 82 nM in assay [1] and 180 nM in assay [2].

In the case of `O=C(CCC(F)(F)F)N[C@@H](c1cnn2cc([C@@H](NC(=O)c3cnnn3C3CC3)C3CCC(F)(F)CC3)nc2c1)C1CC1` [Example 68, 1-Cyclopropyl-N—((S)-(7-((R)-cyclopropyl(4,4,4-trifluorobutanamido)methyl)imidazo[1,2-b]pyridazin-2-yl)(4,4-difluorocyclohexyl)methyl)-1H-1,2,3-triazole-5-carboxamide], the IC50 was 150 nM in assay [1] and 250 nM in assay [2].

(Values after patent US11702422B2, “Imidazopyridazines as modulators of IL-17” (Janssen Pharmaceutica NV, priority 2020, dated 2023).)
